Reference: patent US6852673B2, “Herbicidal pyridine compounds” (BASF Aktiengesellschaft, priority 1998, dated 2005)

Columns and labels:
Assay type in all cases: in vivo
Stellaria media (STEME) = assay: Pre-emergence herbicidal evaluation, chickweed
Source text: (§1) The pre-emergence herbicidal activity of the compounds of the present invention is exemplified by the following test in which the seeds of a variety of monocotyledonous and dicotyledonous plants are seperately mixed with potting soil and planted on top of approximately one inch of soil in separate pots. After planting, the pots are sprayed with the selected aqueous acetone solution containing test compound in sufficient quantity to provide the equivalent of about 0.0125 to 0.4 kg per hectare of test compound per pot. The treated pots are then placed on greenhouse benches, watered and cared for in accordance with conventional greenhouse procedures. From 2 to 4 weeks after treatment, the tests are terminated and each pot is examined and rated according to the rating system set forth below.

[1] = system: Ipomoea hederacea (IPOHE); assay: Pre-emergence herbicidal evaluation, morning glory
Source text: as §1

[2] = system: Abutilon theophrasti (ABUTH); assay: Pre-emergence herbicidal evaluation, velvetleaf
Source text: as §1

[3] = system: Alopecurus myosuroides (ALOMY); assay: Pre-emergence herbicidal evaluation, black grass
Source text: as §1

Hordeum vulgare (HORVW) = assay: Pre-emergence herbicidal evaluation, winter barley
Source text: as §1

[4] = system: Digitaria sanguinalis (DIGSA); assay: Pre-emergence herbicidal evaluation, large crabgrass
Source text: as §1

[5] = system: Triticum aestivum (TRZAW); assay: Pre-emergence herbicidal evaluation, winter wheat
Source text: as §1

Lamium purpureum (LAMPU) = assay: Pre-emergence herbicidal evaluation, purple deadnettle
Source text: as §1

Solanum nigrum (SOLNI) = assay: Pre-emergence herbicidal evaluation, black nightshade
Source text: as §1

[6] = system: Matricaria inodora (MATIN); assay: Pre-emergence herbicidal evaluation, mayweed
Source text: as §1

Setaria viridis (SETVI) = assay: Pre-emergence herbicidal evaluation, green foxtail
Source text: as §1

Galium aparine (GALAP) = assay: Pre-emergence herbicidal evaluation, cleaver
Source text: as §1

Structure (SMILES)	STEME rating (Stellaria media (STEME); dose 0.025 kg/ha)	STEME rating (Stellaria media (STEME); dose 0.1 kg/ha)	STEME rating (Stellaria media (STEME); dose 0.4 kg/ha)	IPOHE rating ([1]; dose 0.025 kg/ha)	IPOHE rating ([1]; dose 0.1 kg/ha)	IPOHE rating ([1]; dose 0.4 kg/ha)	ABUTH rating ([2]; dose 0.025 kg/ha)	ABUTH rating ([2]; dose 0.1 kg/ha)	ABUTH rating ([2]; dose 0.4 kg/ha)	ALOMY rating ([3]; dose 0.025 kg/ha)	ALOMY rating ([3]; dose 0.1 kg/ha)	ALOMY rating ([3]; dose 0.4 kg/ha)	HORVW rating (Hordeum vulgare (HORVW); dose 0.025 kg/ha)	HORVW rating (Hordeum vulgare (HORVW); dose 0.1 kg/ha)	HORVW rating (Hordeum vulgare (HORVW); dose 0.4 kg/ha)	DIGSA rating ([4]; dose 0.025 kg/ha)	DIGSA rating ([4]; dose 0.1 kg/ha)	DIGSA rating ([4]; dose 0.4 kg/ha)	TRZAW rating ([5]; dose 0.025 kg/ha)	TRZAW rating ([5]; dose 0.1 kg/ha)	further results
CC(Cl)=CCOc1cc(C#N)cc(Oc2csc(C(F)(F)F)c2)n1 [Example 28]	9 (9 - Complete kill)	9 (9 - Complete kill)	9 (9 - Complete kill)	0 (0 - No effect)	0 (0 - No effect)	1 (1 - Trace effect)	5 (5 - Definite injury)	7 (7 - Good herbicidal effect)	8 (8 - Approaching complete kill)	3 (3 - Moderate effect)	8 (8 - Approaching complete kill)	9 (9 - Complete kill)	0 (0 - No effect)	1 (1 - Trace effect)	3 (3 - Moderate effect)	3 (3 - Moderate effect)	9 (9 - Complete kill)	9 (9 - Complete kill)	0 (0 - No effect)	0 (0 - No effect)	TRZAW rating ([5]; dose 0.4 kg/ha): 1 (1 - Trace effect); LAMPU rating (Lamium purpureum (LAMPU); dose 0.025 kg/ha): 5 (5 - Definite injury); LAMPU rating (Lamium purpureum (LAMPU); dose 0.1 kg/ha): 8 (8 - Approaching complete kill); LAMPU rating (Lamium purpureum (LAMPU); dose 0.4 kg/ha): 8 (8 - Approaching complete kill); SOLNI rating (Solanum nigrum (SOLNI); dose 0.025 kg/ha): 4 (4 - Injury); SOLNI rating (Solanum nigrum (SOLNI); dose 0.1 kg/ha): 8 (8 - Approaching complete kill); SOLNI rating (Solanum nigrum (SOLNI); dose 0.4 kg/ha): 8 (8 - Approaching complete kill); MATIN rating ([6]; dose 0.025 kg/ha): 9 (9 - Complete kill); MATIN rating ([6]; dose 0.1 kg/ha): 9 (9 - Complete kill); MATIN rating ([6]; dose 0.4 kg/ha): 9 (9 - Complete kill)
CC(Cl)=CCOc1nc(Oc2cc(C(F)(F)F)nn2C)c(F)c(C)c1F [Example 35]	–	–	–	–	–	–	–	–	–	–	–	–	–	–	–	–	–	–	–	–	STEME rating (Stellaria media (STEME); dose 0.04 kg/ha): 8 (8 - Approaching complete kill); STEME rating (Stellaria media (STEME); dose 0.06 kg/ha): 9 (9 - Complete kill); STEME rating (Stellaria media (STEME); dose 0.12 kg/ha): 9 (9 - Complete kill); SETVI rating (Setaria viridis (SETVI); dose 0.04 kg/ha): 8 (8 - Approaching complete kill); SETVI rating (Setaria viridis (SETVI); dose 0.06 kg/ha): 9 (9 - Complete kill); SETVI rating (Setaria viridis (SETVI); dose 0.12 kg/ha): 9 (9 - Complete kill); ALOMY rating ([3]; dose 0.04 kg/ha): 9 (9 - Complete kill); ALOMY rating ([3]; dose 0.06 kg/ha): 9 (9 - Complete kill); ALOMY rating ([3]; dose 0.12 kg/ha): 9 (9 - Complete kill); TRZAW rating ([5]; dose 0.04 kg/ha): 1 (1 - Trace effect); TRZAW rating ([5]; dose 0.06 kg/ha): 3 (3 - Moderate effect); TRZAW rating ([5]; dose 0.12 kg/ha): 3 (3 - Moderate effect); MATIN rating ([6]; dose 0.04 kg/ha): 9 (9 - Complete kill); MATIN rating ([6]; dose 0.06 kg/ha): 9 (9 - Complete kill); MATIN rating ([6]; dose 0.12 kg/ha): 9 (9 - Complete kill)
C=C(Cl)COc1cc(C)cc(Oc2cc(C(F)(F)F)nn2C)n1 [Example 36]	5 (5 - Definite injury)	9 (9 - Complete kill)	9 (9 - Complete kill)	2 (2 - Slight effect)	3 (3 - Moderate effect)	9 (9 - Complete kill)	5 (5 - Definite injury)	5 (5 - Definite injury)	8 (8 - Approaching complete kill)	4 (4 - Injury)	8 (8 - Approaching complete kill)	9 (9 - Complete kill)	2 (2 - Slight effect)	3 (3 - Moderate effect)	5 (5 - Definite injury)	8 (8 - Approaching complete kill)	9 (9 - Complete kill)	9 (9 - Complete kill)	0 (0 - No effect)	2 (2 - Slight effect)	SETVI rating (Setaria viridis (SETVI); dose 0.025 kg/ha): 9 (9 - Complete kill); SETVI rating (Setaria viridis (SETVI); dose 0.1 kg/ha): 9 (9 - Complete kill); SETVI rating (Setaria viridis (SETVI); dose 0.4 kg/ha): 9 (9 - Complete kill); TRZAW rating ([5]; dose 0.4 kg/ha): 2 (2 - Slight effect); LAMPU rating (Lamium purpureum (LAMPU); dose 0.025 kg/ha): 7 (7 - Good herbicidal effect); LAMPU rating (Lamium purpureum (LAMPU); dose 0.1 kg/ha): 8 (8 - Approaching complete kill); LAMPU rating (Lamium purpureum (LAMPU); dose 0.4 kg/ha): 9 (9 - Complete kill); GALAP rating (Galium aparine (GALAP); dose 0.025 kg/ha): 0 (0 - No effect); GALAP rating (Galium aparine (GALAP); dose 0.1 kg/ha): 3 (3 - Moderate effect); GALAP rating (Galium aparine (GALAP); dose 0.4 kg/ha): 8 (8 - Approaching complete kill); MATIN rating ([6]; dose 0.025 kg/ha): 7 (7 - Good herbicidal effect); MATIN rating ([6]; dose 0.1 kg/ha): 9 (9 - Complete kill); MATIN rating ([6]; dose 0.4 kg/ha): 9 (9 - Complete kill)
